Test results: ChEMBL document CHEMBL1201862, “PubChem BioAssay data set” (2004)
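Grown in 96-well plates, cells were treated for 48 hours with each compound at five concentrations. Insufficient inhibition: endpoint recorded as highest concentration tested. GI50 = concentration required for 50% inhibition of growth.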 Active and inactive are the calls of the source. Rule as the data show it: active = GI50 up to about 1.1 µM and inactive = higher.

Experiments:
Assay in all cases: DTP human tumour cell line panel, 48 h
ACHN = system: ACHN
BT-549 = system: BT-549
CCRF-CEM = system: CCRF-CEM
COLO 205 = system: COLO 205
DU-145 = system: DU-145
EKVX = system: EKVX
HCT-116 = system: HCT-116
Hs-578T = system: Hs-578T
IGROV-1 = system: IGROV-1
MDA-MB-435 = system: MDA-MB-435
MDA-N = system: MDA-N
NCI-H226 = system: NCI-H226
OVCAR-5 = system: OVCAR-5
SF-539 = system: SF-539
SK-MEL-28 = system: SK-MEL-28
SNB-75 = system: SNB-75
SR = system: SR
T47D = system: T47D
UO-31 = system: UO-31
MCF7 = system: MCF7

Measured: GI50

COC(C)(C)OCCN1CCN(CCN2C3=C(C=C(C(C)=O)C3)Sc3ccccc32)CC1
inactive: ACHN 18.1 µM | BT-549 21.6 µM | CCRF-CEM 15.2 µM | COLO 205 17.6 µM | DU-145 21.8 µM | EKVX 42.1 µM | HCT-116 18 µM | Hs-578T 15.8 µM | IGROV-1 20 µM | MDA-MB-435 16 µM | MDA-N 19 µM | NCI-H226 22.9 µM | OVCAR-5 25.4 µM | SF-539 20.1 µM | SK-MEL-28 16.4 µM | SNB-75 30.5 µM | SR 15.6 µM | T47D 23.9 µM | UO-31 25.1 µM

COCC1OCCN1C (stereo not given)
inactive: ACHN > 100 µM | BT-549 > 100 µM | CCRF-CEM > 100 µM | COLO 205 > 100 µM | EKVX > 100 µM | HCT-116 > 100 µM | Hs-578T > 100 µM | IGROV-1 > 100 µM | MCF7 > 100 µM | MDA-MB-435 > 100 µM | MDA-N > 100 µM | NCI-H226 > 100 µM | OVCAR-5 > 100 µM | SF-539 > 100 µM | SNB-75 > 100 µM | SR > 100 µM | T47D > 100 µM | UO-31 > 100 µM

O=Cc1ccc(OC[C@H]2COC(=O)N2)cc1
inactive: ACHN > 100 µM | BT-549 > 100 µM | CCRF-CEM > 100 µM | COLO 205 72.4 µM | DU-145 > 100 µM | EKVX > 100 µM | HCT-116 > 100 µM | Hs-578T > 100 µM | IGROV-1 > 100 µM | MCF7 > 100 µM | MDA-MB-435 > 100 µM | NCI-H226 > 100 µM | OVCAR-5 > 100 µM | SF-539 > 100 µM | SK-MEL-28 > 100 µM | SNB-75 > 100 µM | SR > 100 µM | T47D > 100 µM | UO-31 > 100 µM

N#Cc1cnn2cc[nH]c12
inactive: ACHN > 100 µM | BT-549 > 100 µM | CCRF-CEM > 100 µM | COLO 205 > 100 µM | DU-145 > 100 µM | EKVX > 100 µM | HCT-116 > 100 µM | Hs-578T > 100 µM | IGROV-1 > 100 µM | MCF7 > 100 µM | MDA-N > 100 µM | NCI-H226 > 100 µM | OVCAR-5 > 100 µM | SF-539 10 µM | SK-MEL-28 > 100 µM | SNB-75 > 100 µM | SR > 100 µM | T47D > 100 µM | UO-31 > 100 µM

Nc1[nH]c(=O)[nH]c(=O)c1Cc1cccc(Cl)c1
inactive: ACHN > 100 µM | BT-549 75.2 µM | COLO 205 > 100 µM | EKVX > 100 µM | HCT-116 45.5 µM | Hs-578T 39.6 µM | IGROV-1 56.9 µM | MCF7 17.9 µM | MDA-MB-435 44 µM | MDA-N 41 µM | NCI-H226 > 100 µM | OVCAR-5 > 100 µM | SF-539 > 100 µM | SK-MEL-28 > 100 µM | SNB-75 58.7 µM | T47D 39 µM | UO-31 26.2 µM

O=C(Nc1ccccc1)c1cc2cc(CCl)ccc2oc1=O
inactive: ACHN 17 µM | BT-549 > 100 µM | CCRF-CEM > 100 µM | COLO 205 > 100 µM | DU-145 > 100 µM | EKVX > 100 µM | HCT-116 > 100 µM | Hs-578T 15 µM | IGROV-1 > 100 µM | MCF7 26.4 µM | MDA-MB-435 > 100 µM | NCI-H226 > 100 µM | OVCAR-5 > 100 µM | SK-MEL-28 > 100 µM | SNB-75 34.7 µM | SR 41.5 µM | T47D > 100 µM | UO-31 > 100 µM
